Data from PubChem BioAssay AID328 (DTP/NCI, 2004).
Where “and” joins values, the source holds several entries; their conditions need not be identical. Equal entries are not always repeated. Inconclusive results and toxic doses are left out.

Test system: BDF1 mice, P388 leukemia ip, median survival T/C
Experiment: NCI In Vivo Anticancer Drug Screen. Data for tumor model P388 Leukemia (intraperitoneal) in B6D2F1 (BDF1) mice
Details: endpoint: median survival time, higher = longer survival
Procedure, shortened: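 Steps: implant the tumour, treat one group with compound and another with vehicle, record survival, then divide treated by control.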

[1] = dose: 100.0 mg/kg/injection, schedule: Q01DX009 (ip), vehicle: saline

## CCCCN(CCCC)c1ccc(/C=C/c2ccnc3ccccc23)cc1
dose: 100.0 mg/kg/injection, schedule: Q01DX009 (sc), vehicle: olive oil, sesame oil, peanut oil
  T/C: 88 % of control
dose: 100.0 mg/kg/injection, schedule: Q04DX003 (sc), vehicle: olive oil, sesame oil, peanut oil
  T/C: 88 % of control and 95 % of control
dose: 200.0 mg/kg/injection, schedule: Q01DX009 (sc), vehicle: olive oil, sesame oil, peanut oil
  T/C: 88 % of control
dose: 200.0 mg/kg/injection, schedule: Q04DX003 (sc), vehicle: olive oil, sesame oil, peanut oil
  T/C: 92 % of control and 95 % of control
dose: 400.0 mg/kg/injection, schedule: Q01DX009 (sc), vehicle: olive oil, sesame oil, peanut oil
  T/C: 92 % of control
dose: 400.0 mg/kg/injection, schedule: Q04DX003 (sc), vehicle: olive oil, sesame oil, peanut oil
  T/C: 92 % of control and 95 % of control

## CCCC(=O)Oc1ccc(/C=N/NC(N)=S)nc1
dose: 44.0 mg/kg/injection, schedule: Q01DX009 (ip), vehicle: saline with Tween-80
  T/C: 172 % of control
dose: 50.0 mg/kg/injection, schedule: Q01DX009 (ip), vehicle: saline with Tween-80
  T/C: 173 % of control
dose: 66.0 mg/kg/injection, schedule: Q01DX009 (ip), vehicle: saline with Tween-80
  T/C: 183 % of control
dose: 100.0 mg/kg/injection, schedule: Q01DX009 (ip), vehicle: saline with Tween-80
  T/C: 201 % of control and 211 % of control
dose: 150.0 mg/kg/injection, schedule: Q01DX009 (ip), vehicle: saline with Tween-80
  T/C: 227 % of control
dose: 200.0 mg/kg/injection, schedule: Q01DX009 (ip), vehicle: saline with Tween-80
  T/C: 115 % of control

## CN(C)N=Nc1ccccc1
dose: 31.25 mg/kg/injection, schedule: Q01DX009 (ip), vehicle: Klucel (hydroxypropylcellulose) (HPC)
  T/C: 103 % of control
dose: 82.0 mg/kg/injection, schedule: Q04DX003 (ip), vehicle: Klucel (hydroxypropylcellulose) (HPC)
  T/C: 110 % of control
dose: 125.0 mg/kg/injection, schedule: Q04DX003 (ip), vehicle: saline
  T/C: 90 % of control

## C/C(C/C(C)=N\NC(=O)CN)=N/NC(=O)CN
dose: 33.75 mg/kg/injection, schedule: Q01DX009 (ip), vehicle: saline with Tween-80
  T/C: 104 % of control
dose: 67.5 mg/kg/injection, schedule: Q01DX009 (ip), vehicle: saline with Tween-80
  T/C: 100 % of control
dose: 135.0 mg/kg/injection, schedule: Q01DX009 (ip), vehicle: saline with Tween-80
  T/C: 106 % of control

## O=NN(CCCl)C(=O)Nc1c[nH]c(=O)[nH]c1=O
dose: 0.08 mg/kg/injection, schedule: Q04DX003 (ip), vehicle: saline with Tween-80
  T/C: 155 % of control
dose: 0.09 mg/kg/injection, schedule: Q04DX003 (ip), vehicle: saline with Tween-80
  T/C: 100 % of control
dose: 0.15 mg/kg/injection, schedule: Q04DX003 (ip), vehicle: saline with Tween-80
  T/C: 180 % of control
dose: 0.3 mg/kg/injection, schedule: Q04DX003 (ip), vehicle: saline with Tween-80
  T/C: 185 % of control
dose: 0.78 mg/kg/injection, schedule: Q04DX003 (ip), vehicle: saline with Tween-80
  T/C: 175 % of control
dose: 1.56 mg/kg/injection, schedule: Q04DX003 (ip), vehicle: saline with Tween-80
  T/C: 154 % of control
dose: 2.4 mg/kg/injection, schedule: Q01DX009 (ip), vehicle: saline with Tween-80
  T/C: 186 % of control
dose: 3.12 mg/kg/injection, schedule: Q04DX003 (ip), vehicle: saline with Tween-80
  T/C: 213 % of control
dose: 3.6 mg/kg/injection, schedule: Q01DX009 (ip), vehicle: saline with Tween-80
  T/C: 201 % of control
dose: 4.0 mg/kg/injection, schedule: Q01DX009 (ip), vehicle: saline with Tween-80
  T/C: 195 % of control
dose: 5.5 mg/kg/injection, schedule: Q01DX009 (ip), vehicle: saline with Tween-80
  T/C: 193 % of control
dose: 6.0 mg/kg/injection, schedule: Q01DX009 (ip), vehicle: saline with Tween-80
  T/C: 229 % of control
dose: 6.25 mg/kg/injection, schedule: Q04DX003 (ip), vehicle: saline with Tween-80
  T/C: 190 % of control
dose: 8.0 mg/kg/injection, schedule: Q01DX009 (ip), vehicle: saline with Tween-80
  T/C: 220 % of control
dose: 8.0 mg/kg/injection, schedule: Q04DX003 (ip), vehicle: saline with Tween-80
  T/C: 204 % of control
dose: 9.0 mg/kg/injection, schedule: Q01DX009 (ip), vehicle: saline with Tween-80
  T/C: 120 % of control
dose: 12.0 mg/kg/injection, schedule: Q01DX009 (ip), vehicle: saline with Tween-80
  T/C: 250 % of control
dose: 12.0 mg/kg/injection, schedule: Q04DX003 (ip), vehicle: saline with Tween-80
  T/C: 204 % of control
dose: 12.5 mg/kg/injection, schedule: Q01DX009 (ip), vehicle: saline with Tween-80
  T/C: 250 % of control
dose: 12.5 mg/kg/injection, schedule: Q04DX003 (ip), vehicle: saline with Tween-80
  T/C: 230 % of control
dose: 18.0 mg/kg/injection, schedule: Q01DX009 (ip), vehicle: saline with Tween-80
  T/C: 104 % of control
dose: 18.0 mg/kg/injection, schedule: Q04DX003 (ip), vehicle: saline with Tween-80
  T/C: 227 % of control
dose: 25.0 mg/kg/injection, schedule: Q01DX009 (ip), vehicle: saline with Tween-80
  T/C: 100 % of control
dose: 25.0 mg/kg/injection, schedule: Q04DX003 (ip), vehicle: saline with Tween-80
  T/C: 230 % of control
dose: 50.0 mg/kg/injection, schedule: Q04DX003 (ip), vehicle: saline with Tween-80
  T/C: 230 % of control

## O.O=C(O)O.O=C(O)O.O=C(O)O.[Zr]
[1]
  T/C: 96 % of control
dose: 100.0 mg/kg/injection, schedule: Q04DX003 (ip), vehicle: saline
  T/C: 100 % of control
dose: 200.0 mg/kg/injection, schedule: Q01DX009 (ip), vehicle: saline
  T/C: 96 % of control
dose: 200.0 mg/kg/injection, schedule: Q04DX003 (ip), vehicle: saline
  T/C: 100 % of control
dose: 400.0 mg/kg/injection, schedule: Q01DX009 (ip), vehicle: saline
  T/C: 96 % of control
dose: 400.0 mg/kg/injection, schedule: Q04DX003 (ip), vehicle: saline
  T/C: 95 % of control

## N=C(N)N.O=S(=O)(O)[O][Al]1[O]S(=O)(=O)[O]1
dose: 25.0 mg/kg/injection, schedule: Q01DX009 (ip), vehicle: saline
  T/C: 87 % of control
dose: 50.0 mg/kg/injection, schedule: Q01DX009 (ip), vehicle: saline
  T/C: 100 % of control
[1]
  T/C: 95 % of control

## CCCCCCCCOc1cc(OC(C)=O)c2c(ccc3ccccc32)c1
dose: 100.0 mg/kg/injection, schedule: Q04DX003 (ip), vehicle: saline with Tween-80
  T/C: 88 % of control
dose: 200.0 mg/kg/injection, schedule: Q04DX003 (ip), vehicle: saline with Tween-80
  T/C: 87 % of control
dose: 400.0 mg/kg/injection, schedule: Q04DX003 (ip), vehicle: saline with Tween-80
  T/C: 88 % of control

## CCCC1CC[N-]CC1.CCCC1CC[N-]CC1.[Cl][Pd][Cl]
dose: 12.5 mg/kg/injection, schedule: Q04DX003 (ip), vehicle: water
  T/C: 95 % of control
dose: 25.0 mg/kg/injection, schedule: Q01DX009 (ip), vehicle: water
  T/C: 114 % of control
dose: 50.0 mg/kg/injection, schedule: Q01DX009 (ip), vehicle: water
  T/C: 114 % of control
dose: 100.0 mg/kg/injection, schedule: Q04DX003 (ip), vehicle: water
  T/C: 90 % of control and 112 % of control and 120 % of control
dose: 200.0 mg/kg/injection, schedule: Q04DX003 (ip), vehicle: water
  T/C: 95 % of control and 99 % of control and 120 % of control
dose: 300.0 mg/kg/injection, schedule: Q04DX003 (ip), vehicle: water
  T/C: 96 % of control

## O=C(CCN1CCCCC1)c1ccc(C(F)(F)F)cc1
dose: 0.39 mg/kg/injection, schedule: Q01DX009 (ip), vehicle: saline
  T/C: 100 % of control and 116 % of control
dose: 0.78 mg/kg/injection, schedule: Q01DX009 (ip), vehicle: saline
  T/C: 102 % of control and 116 % of control
dose: 1.56 mg/kg/injection, schedule: Q01DX009 (ip), vehicle: saline
  T/C: 100 % of control
dose: 6.25 mg/kg/injection, schedule: Q01DX009 (ip), vehicle: saline with Tween-80
  T/C: 99 % of control

## OCCN1CCN(CCCN2c3ccccc3Sc3ccc(C(F)(F)F)cc32)CC1
dose: 0.31 mg/kg/injection, schedule: Q01DX009 (ip), vehicle: saline
  T/C: 86 % of control
dose: 0.62 mg/kg/injection, schedule: Q01DX009 (ip), vehicle: saline
  T/C: 90 % of control
dose: 0.82 mg/kg/injection, schedule: Q01DX009 (ip), vehicle: saline
  T/C: 86 % of control
dose: 1.25 mg/kg/injection, schedule: Q01DX009 (ip), vehicle: saline
  T/C: 113 % of control
dose: 12.5 mg/kg/injection, schedule: Q04DX003 (ip), vehicle: saline
  T/C: 105 % of control
